Data on 30 compounds can be found in patent publication US9862713B2, “Substituted bicyclic heteroaryl compounds as RXR agonists” (CONNEXIOS LIFE SCIENCES PVT. LTD., priority 2014, dated 2018).

The subject of one test is hRXR α, β, or γ. As to the kind of experiment: Transactivation assay (RARE-Luc dual luciferase reporter in HEK-293 cells), activity relative to LG268. The class given is cell-based, human. The note with it: compound at 300 nM, 24 h; luciferase activity expressed relative to LG268. On the procedure:
HEK-293 cells (ATCC) were seeded one day prior to transfection. For assessing EC50 of activation of RXR isoforms 2 μg of hRXR α, β, or γ (OriGENE, USA) over-expressing vector, 1 μg of plasmid expressing firefly luciferase under RARE element (RARE-Luc) and 25 ng of renilla luciferase vector (QIAGEN, USA) were co-transfected using lipofectamine reagent. Post 24 h of transfection, cells were treated with different concentrations of RXR agonists (100 nM, 300 nM and 1 uM) for 24 h followed by estimation of luciferase activity using Dual Luciferase Reporter Assay System (Promega). Luciferase activity was normalized to that of renilla luciferase. The activities of the RXR compounds were expressed relative to LG268, a known RXR agonist.
`CC1(C)CCC(C)(C)c2sc(Oc3ccc(C(=O)O)cc3)nc21` [Compound 46, 4-[(4,4,7,7-Tetramethyl-4,5,6,7-tetrahydro-1,3-benzothiazol-2-yl)oxy]benzoic acid]: the “Activity at 300 nM” value is “** (>0.3 and <0.4)”.
Still for that read-out and setting: to `Cc1c(N(CC(C)C)c2ccc(C(=O)O)c([N+](=O)[O-])c2)sc2c1C(C)(C)CCC2(C)C` [Compound 51, 4-[(2-methylpropyl) (3,4,4,7,7-pentamethyl-4,5,6,7-tetrahydro-1-benzothiophen-2-yl)amino]-2-nitrobenzoic acid] belongs “***** (>0.6)”; to `CC1(C)CC(=O)C(C)(C)c2nc(N(CC3CC3)c3ccc(C(=O)O)cn3)sc21` [Compound 52, 6-[(cyclopropylmethyl) (4,4,7,7-tetramethyl-5-oxo-4,5,6,7-tetrahydro-1,3-benzothiazol-2-yl)amino]pyridine-3-carboxylic acid], “***** (>0.6)”.
The same measure, in the same setting: then `CC(C)CN(c1ccc(C(=O)O)cc1)c1nc2c(s1)C(C)(C)CC(=O)C2(C)C` [Compound 53, 4-[(2-methylpropyl) (4,4,7,7-tetramethyl-5-oxo-4,5,6,7-tetrahydro-1,3-benzothiazol-2-yl)amino]benzoic acid], with “***** (>0.6)”; and `COc1cc(N(CC(C)C)c2sc3c(c2C)C(C)(C)CCC3(C)C)ccc1C(=O)O` [Compound 54, 2-methoxy-4-[(2-methylpropyl)(3,4,4,7,7-pentamethyl-4,5,6,7-tetrahydro-1-benzothiophen-2-yl)amino]benzoic acid], with “*** (>0.4 and <0.5)”.
Turning to `Cc1c(N(CC(C)C)c2ccc(C(=O)O)c(OCC3CC3)c2)sc2c1C(C)(C)CCC2(C)C` [Compound 55, 2-(cyclopropylmethoxy)-4-[(2-methylpropyl) (3,4,4,7,7-pentamethyl-4,5,6,7-tetrahydro-1-benzothiophen-2-yl)amino]benzoic acid], the “Activity at 300 nM” value is “*** (>0.4 and <0.5)”.
The same measure, in the same setting: then `C#CCOc1cc(N(CC(C)C)c2sc3c(c2C)C(C)(C)CCC3(C)C)ccc1C(=O)O` [Compound 56, 4-[(2-methylpropyl) (3,4,4,7,7-pentamethyl-4,5,6,7-tetrahydro-1-benzothiophen-2-yl)amino]-2-(prop-2-yn-1-yloxy)benzoic acid], with “*** (>0.4 and <0.5)”; and `Cc1c(N(CC(C)C)c2ccc(C(=O)O)c(Oc3ccccc3)c2)sc2c1C(C)(C)CCC2(C)C` [Compound 57, 4-[(2-methylpropyl) (3,4,4,7,7-pentamethyl-4,5,6,7-tetrahydro-1-benzothiophen-2-yl)amino]-2-phenoxybenzoic acid], with “***** (>0.6)”; and `Cc1cc(N(CC(C)C)c2nc3c(s2)C(C)(C)CCC3(C)C)ccc1C(=O)O` [Compound 58, 2-methyl-4-[(2-methylpropyl) (4,4,7,7-tetramethyl-4,5,6,7-tetrahydro-1,3-benzothiazol-2-yl)amino]benzoic acid], with “*** (>0.4 and <0.5)”.
For `Cc1cc(N(CC2CC2)c2nc3c(s2)C(C)(C)CCC3(C)C)ccc1C(=O)O` [Compound 59, 4-[(cyclopropylmethyl) (4,4,7,7-tetramethyl-4,5,6,7-tetrahydro-1,3-benzothiazol-2-yl)amino]-2-methylbenzoic acid], the “Activity at 300 nM” value was “** (>0.3 and <0.4)”.
As to `Cc1cc(C(=O)O)ccc1N(CC1CC1)c1nc2c(s1)C(C)(C)CCC2(C)C` [Compound 60, 4-[(cyclopropylmethyl) (4,4,7,7-tetramethyl-4,5,6,7-tetrahydro-1,3-benzothiazol-2-yl)amino]-3-methylbenzoic acid], the “Activity at 300 nM” value was “** (>0.3 and <0.4)”.
On the same count and under the same terms, then `Cc1cc(C(=O)O)ccc1N(CC(C)C)c1nc2c(s1)C(C)(C)CCC2(C)C` [Compound 61, 3-methyl-4-[(2-methylpropyl) (4,4,7,7-tetramethyl-4,5,6,7-tetrahydro-1,3-benzothiazol-2-yl)amino]benzoic acid], with “**** (>0.5 to <0.6)”; and `C=CCN(c1ccc(C(=O)O)cc1)c1nc2c(s1)C(C)(C)CCC2(C)C` [Compound 62, 4-[prop-2-en-1-yl(4,4,7,7-tetramethyl-4,5,6,7-tetrahydro-1,3-benzothiazol-2-yl)amino]benzoic acid], with “***** (>0.6)”; and `CC1(C)CCC(C)(C)c2sc(N(c3ccc(C(=O)O)cc3)c3ccc(C(=O)O)o3)nc21` [Compound 63, 5-[(4-carboxyphenyl) (4,4,7,7-tetramethyl-4,5,6,7-tetrahydro-1,3-benzothiazol-2-yl)amino]furan-2-carboxylic acid], with “*** (>0.4 and <0.5)”.
Still for that read-out and setting: to `CC(C)CN(c1ccc(C(=O)O)cn1)c1nc2c(s1)C(C)(C)CCC2(C)C` [Compound 64, 6-[(2-methylpropyl) (4,4,7,7-tetramethyl-4,5,6,7-tetrahydro-1,3-benzothiazol-2-yl)amino]pyridine-3-carboxylic acid] belongs “***** (>0.6)”.

The test is the same for the next values; noted with them: compound at 1 µM, 24 h; luciferase activity expressed relative to LG268.
On to `CN(c1ccc(C(=O)O)cc1)c1nc2c(s1)C(C)(C)C=CC2(C)C` [Compound 34, 4-[Methyl(4,4,7,7-tetramethyl-4,7-dihydro-1,3-benzothiazol-2-yl)amino]benzoic acid], for which the “Activity at 1 µM” value is “** (>0.7 and <0.8)”.
Still for that read-out and setting: then `CCOC1CC(C)(C)c2sc(N(C)c3ccc(C(=O)O)cc3)nc2C1(C)C` (stereo not shown) [Compound 35, 4-[(5-Ethoxy-4,4,7,7-tetramethyl-4,5,6,7-tetrahydro-1,3-benzothiazol-2-yl)(methyl)amino]benzoic acid], with “*** (>0.8 and <0.9)”; and `CC1(C)CCC(C)(C)c2sc(N(c3ccc(C(=O)O)cc3)C3CC3)nc21` [Compound 36, 4-[Cyclopropyl(4,4,7,7-tetramethyl-4,5,6,7-tetrahydro-1,3-benzothiazol-2-yl)amino]benzoic acid], with “***** (>1)”.
The same measure, in the same setting: then `CC1(C)CCC(C)(C)c2sc(N(c3ccc(C(=O)O)cn3)C3CC3)nc21` [Compound 37, 6-[Cyclopropyl(4,4,7,7-tetramethyl-4,5,6,7-tetrahydro-1,3-benzothiazol-2-yl)amino]pyridine-3-carboxylic acid], with “***** (>1)”.
On the same count and under the same terms, then `CC1(C)CCC(C)(C)c2sc(N(CC3CC3)c3ccc(C(=O)O)cc3)nc21` [Compound 38, 4-[(Cyclopropylmethyl) (4,4,7,7-tetramethyl-4,5,6,7-tetrahydro-1,3-benzothiazol-2-yl)amino]benzoic acid], with “*** (>0.8 and <0.9)”; and `CCN(c1ccc(C(=O)O)cn1)c1nc2c(s1)C(C)(C)CCC2(C)C` [Compound 39, 6-[Ethyl(4,4,7,7-tetramethyl-4,5,6,7-tetrahydro-1,3-benzothiazol-2-yl)amino]pyridine-3-carboxylic acid], with “***** (>1)”; and `CCN(c1ccc(C(=O)O)cn1)c1nc2c(s1)C(C)(C)CC(=O)C2(C)C` [Compound 41, 6-[Ethyl(4,4,7,7-tetramethyl-5-oxo-4,5,6,7-tetrahydro-1,3-benzothiazol-2-yl)amino]pyridine-3-carboxylic acid], with “* (<0.7)”.
Consider `CCN(c1ncc(C(=O)O)cn1)c1nc2c(s1)C(C)(C)CCC2(C)C` [Compound 42, 2-[Ethyl(4,4,7,7-tetramethyl-4,5,6,7-tetrahydro-1,3-benzothiazol-2-yl)amino]pyrimidine-5-carboxylic acid], for which the “Activity at 1 µM” value is “** (>0.7 and <0.8)”.
On the same count and under the same terms, then `CC1(C)CCC(C)(C)c2sc(N(CC3CC3)c3ncc(C(=O)O)cn3)nc21` [Compound 43, 2-[(Cyclopropylmethyl) (4,4,7,7-tetramethyl-4,5,6,7-tetrahydro-1,3-benzothiazol-2-yl)amino]pyrimidine-5-carboxylic acid], with “* (<0.7)”; and `Cc1nc2cc(C(=O)O)ccc2n1-c1nc2c(s1)C(C)(C)CCC2(C)C` [Compound 44, 2-Methyl-1-(4,4,7,7-tetramethyl-4,5,6,7-tetrahydro-1,3-benzothiazol-2-yl)-1H-benzimidazole-5-carboxylic acid], with “* (<0.7)”; and `CC1(C)CCC(C)(C)c2sc(-n3nnc4cc(C(=O)O)ccc43)nc21` [Compound 45, 1-(4,4,7,7-Tetramethyl-4,5,6,7-tetrahydro-1,3-benzothiazol-2-yl)-1H-benzotriazole-5-carboxylic acid], with “* (<0.7)”.
Still for that read-out and setting: then `CC1(C)CCC(C)(C)c2sc(Oc3ccc(C(=O)O)cc3)nc21` [Compound 46, 4-[(4,4,7,7-Tetramethyl-4,5,6,7-tetrahydro-1,3-benzothiazol-2-yl)oxy]benzoic acid], with “* (<0.7)”; and `CC1(C)CCC(C)(C)c2sc(C(=O)c3ccc(C(=O)O)cc3)nc21` [Compound 47, 4-[(4,4,7,7-Tetramethyl-4,5,6,7-tetrahydro-1,3-benzothiazol-2-yl)carbonyl]benzoic acid], with “* (<0.7)”; and `CC1(C)CCC(C)(C)c2sc(/C=C/c3ccc(C(=O)O)cc3)nc21` [Compound 48, 4-[(E)-2-(4,4,7,7-Tetramethyl-4,5,6,7-tetrahydro-1,3-benzothiazol-2-yl)ethenyl]benzoic acid], with “* (<0.7)”.
Still for that read-out and setting: then `CC1(C)CCC(C)(C)c2sc(/C=C\c3ccc(C(=O)O)cc3)nc21` [Compound 49, 4-[(Z)-2-(4,4,7,7-Tetramethyl-4,5,6,7-tetrahydro-1,3-benzothiazol-2-yl)ethenyl]benzoic acid], with “***** (>1)”; and `CC1(C)CCC(C)(C)c2sc(/C=C/c3ccc(C(=O)O)cn3)nc21` [Compound 50, 6-[(E)-2-(4,4,7,7-Tetramethyl-4,5,6,7-tetrahydro-1,3-benzothiazol-2-yl)ethenyl]pyridine-3-carboxylic acid], with “* (<0.7)”.
